{"source": "patent EP4467141A1", "about": "“PYRAZOLO-QUINOLINES AS SELECTIVE INHIBITORS OF GENOTOXIC STRESS-INDUCED IKK/NF- KB PATHWAYS FOR CANCER THERAPY” (Max-Delbrück-Centrum für Molekulare Medizin in der …, priority 2023, dated 2024)", "assay_in_all_cases": "Kinase panel study", "type_in_all_cases": "biochemical", "conditions_in_all_cases": "read-out: Percentage of inhibition; for inhibition at 1 µM: 1000nM; for inhibition at 10 µM: 10000nM", "key": {"LRRK2 FL": {"molecular_target": "T1, LRRK2 FL (Homo sapiens, UniProt Q5S007)", "T1 construct": "LRRK2 FL; purchased Thermo Fisher Scientific", "method_in_brief": "(§1)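 In vitro, kinase panel; ZLyte or Adapta SOP; single-concentration testing (1 or 10 µM); output = % inhibition, plus IC50 in panel.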"}, "JAK3": {"molecular_target": "T2, JAK3 (Homo sapiens, UniProt P52333)", "T2 construct": "purchased Thermo Fisher Scientific", "T2 sequence (P52333 1-1124)": "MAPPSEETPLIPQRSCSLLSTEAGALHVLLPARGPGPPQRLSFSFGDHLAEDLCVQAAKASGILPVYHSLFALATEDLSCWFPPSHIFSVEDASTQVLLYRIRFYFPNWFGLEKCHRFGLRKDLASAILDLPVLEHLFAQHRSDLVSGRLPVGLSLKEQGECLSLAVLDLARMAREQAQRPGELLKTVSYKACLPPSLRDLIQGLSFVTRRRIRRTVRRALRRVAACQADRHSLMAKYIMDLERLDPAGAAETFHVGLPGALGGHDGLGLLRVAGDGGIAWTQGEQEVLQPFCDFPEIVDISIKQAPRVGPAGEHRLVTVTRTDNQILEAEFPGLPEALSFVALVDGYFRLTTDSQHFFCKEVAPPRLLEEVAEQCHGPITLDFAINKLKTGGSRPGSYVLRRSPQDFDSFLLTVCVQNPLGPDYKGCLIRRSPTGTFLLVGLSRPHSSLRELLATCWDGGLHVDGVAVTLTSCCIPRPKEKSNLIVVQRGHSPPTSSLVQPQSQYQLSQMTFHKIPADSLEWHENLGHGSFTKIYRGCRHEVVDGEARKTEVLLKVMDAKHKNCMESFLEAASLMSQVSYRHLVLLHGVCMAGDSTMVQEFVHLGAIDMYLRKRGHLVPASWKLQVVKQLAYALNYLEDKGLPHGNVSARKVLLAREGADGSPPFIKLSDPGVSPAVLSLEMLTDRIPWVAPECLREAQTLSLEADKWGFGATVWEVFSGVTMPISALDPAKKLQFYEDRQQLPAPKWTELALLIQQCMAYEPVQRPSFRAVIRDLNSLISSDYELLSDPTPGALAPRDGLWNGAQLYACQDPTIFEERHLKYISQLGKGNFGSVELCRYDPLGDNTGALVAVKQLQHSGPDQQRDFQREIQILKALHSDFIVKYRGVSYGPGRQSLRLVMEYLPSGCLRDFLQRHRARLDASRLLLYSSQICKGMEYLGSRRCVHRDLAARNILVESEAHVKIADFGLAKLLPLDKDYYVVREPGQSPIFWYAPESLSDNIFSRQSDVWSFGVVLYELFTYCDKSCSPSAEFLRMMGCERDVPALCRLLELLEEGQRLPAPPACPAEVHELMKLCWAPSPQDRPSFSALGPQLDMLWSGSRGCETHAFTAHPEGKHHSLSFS", "method_in_brief": "as §1"}, "FGFR3": {"molecular_target": "T3, FGFR3 (Homo sapiens, UniProt P22607)", "T3 construct": "purchased Thermo Fisher Scientific", "T3 sequence (P22607 23-806)": "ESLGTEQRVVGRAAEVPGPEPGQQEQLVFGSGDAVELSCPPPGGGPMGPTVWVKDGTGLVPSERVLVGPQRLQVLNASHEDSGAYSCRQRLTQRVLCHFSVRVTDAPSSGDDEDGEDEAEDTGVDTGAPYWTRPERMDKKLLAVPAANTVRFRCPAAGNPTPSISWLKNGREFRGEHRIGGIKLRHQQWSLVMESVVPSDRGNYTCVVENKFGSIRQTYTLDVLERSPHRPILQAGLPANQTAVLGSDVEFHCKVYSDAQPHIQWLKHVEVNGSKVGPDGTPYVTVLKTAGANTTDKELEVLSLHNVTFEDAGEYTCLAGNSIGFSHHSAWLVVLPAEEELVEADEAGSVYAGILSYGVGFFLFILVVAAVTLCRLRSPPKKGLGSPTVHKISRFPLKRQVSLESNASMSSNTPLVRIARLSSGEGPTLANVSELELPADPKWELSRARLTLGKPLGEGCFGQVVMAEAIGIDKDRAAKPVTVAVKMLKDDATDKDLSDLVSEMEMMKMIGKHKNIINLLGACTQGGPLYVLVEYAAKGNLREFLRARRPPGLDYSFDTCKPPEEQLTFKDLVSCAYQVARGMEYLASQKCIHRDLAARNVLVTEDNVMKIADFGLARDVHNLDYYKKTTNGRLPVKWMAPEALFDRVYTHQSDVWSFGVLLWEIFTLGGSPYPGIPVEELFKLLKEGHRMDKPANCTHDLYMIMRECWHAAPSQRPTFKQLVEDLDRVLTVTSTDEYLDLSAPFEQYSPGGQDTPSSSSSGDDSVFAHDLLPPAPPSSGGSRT", "method_in_brief": "as §1"}, "PRKACA (PKA)": {"molecular_target": "T4, PRKACA (PKA) (Homo sapiens, UniProt P17612)", "T4 construct": "purchased Thermo Fisher Scientific", "method_in_brief": "as §1"}, "KIT V559D": {"molecular_target": "T5, KIT V559D (Homo sapiens, UniProt P10721, V559D)", "T5 construct": "purchased Thermo Fisher Scientific", "T5 sequence (P10721 26-976 V559D)": "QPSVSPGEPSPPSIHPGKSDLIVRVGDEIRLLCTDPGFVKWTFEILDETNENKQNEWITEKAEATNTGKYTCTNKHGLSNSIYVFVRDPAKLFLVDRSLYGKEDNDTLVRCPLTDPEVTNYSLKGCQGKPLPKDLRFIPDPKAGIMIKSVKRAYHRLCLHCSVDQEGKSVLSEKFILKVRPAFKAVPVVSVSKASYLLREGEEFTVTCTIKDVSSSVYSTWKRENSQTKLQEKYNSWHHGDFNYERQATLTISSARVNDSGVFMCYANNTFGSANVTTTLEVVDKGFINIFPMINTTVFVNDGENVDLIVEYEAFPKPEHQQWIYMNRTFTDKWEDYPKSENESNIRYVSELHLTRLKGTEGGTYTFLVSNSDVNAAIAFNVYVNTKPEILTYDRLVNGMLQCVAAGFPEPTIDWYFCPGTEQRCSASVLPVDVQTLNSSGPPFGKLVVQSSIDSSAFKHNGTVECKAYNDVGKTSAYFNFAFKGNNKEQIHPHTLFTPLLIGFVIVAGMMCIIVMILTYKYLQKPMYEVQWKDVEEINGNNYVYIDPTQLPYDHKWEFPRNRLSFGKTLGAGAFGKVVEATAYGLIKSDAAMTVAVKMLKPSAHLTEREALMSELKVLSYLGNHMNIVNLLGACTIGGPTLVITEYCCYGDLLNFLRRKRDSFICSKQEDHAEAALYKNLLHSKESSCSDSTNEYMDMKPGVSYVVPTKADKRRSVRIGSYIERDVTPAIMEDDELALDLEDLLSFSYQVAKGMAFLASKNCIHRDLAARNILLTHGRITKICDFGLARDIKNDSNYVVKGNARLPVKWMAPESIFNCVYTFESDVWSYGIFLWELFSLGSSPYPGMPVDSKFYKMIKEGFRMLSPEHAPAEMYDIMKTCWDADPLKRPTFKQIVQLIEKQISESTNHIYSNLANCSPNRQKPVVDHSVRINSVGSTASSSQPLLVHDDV", "method_in_brief": "as §1"}, "CDK5/p35": {"molecular_target": "T6, CDK5/p35 (Homo sapiens, UniProt Q00535)", "T6 construct": "purchased Thermo Fisher Scientific", "method_in_brief": "as §1"}, "CDK7/cyclin H/MNAT1": {"molecular_target": "T7, CDK7/cyclin H/MNAT1 (Homo sapiens, UniProt P50613)", "T7 construct": "purchased Thermo Fisher Scientific", "method_in_brief": "as §1"}, "FGFR1": {"molecular_target": "T8, FGFR1 (Homo sapiens, UniProt P11362)", "T8 construct": "purchased Thermo Fisher Scientific", "T8 sequence (P11362 22-822)": "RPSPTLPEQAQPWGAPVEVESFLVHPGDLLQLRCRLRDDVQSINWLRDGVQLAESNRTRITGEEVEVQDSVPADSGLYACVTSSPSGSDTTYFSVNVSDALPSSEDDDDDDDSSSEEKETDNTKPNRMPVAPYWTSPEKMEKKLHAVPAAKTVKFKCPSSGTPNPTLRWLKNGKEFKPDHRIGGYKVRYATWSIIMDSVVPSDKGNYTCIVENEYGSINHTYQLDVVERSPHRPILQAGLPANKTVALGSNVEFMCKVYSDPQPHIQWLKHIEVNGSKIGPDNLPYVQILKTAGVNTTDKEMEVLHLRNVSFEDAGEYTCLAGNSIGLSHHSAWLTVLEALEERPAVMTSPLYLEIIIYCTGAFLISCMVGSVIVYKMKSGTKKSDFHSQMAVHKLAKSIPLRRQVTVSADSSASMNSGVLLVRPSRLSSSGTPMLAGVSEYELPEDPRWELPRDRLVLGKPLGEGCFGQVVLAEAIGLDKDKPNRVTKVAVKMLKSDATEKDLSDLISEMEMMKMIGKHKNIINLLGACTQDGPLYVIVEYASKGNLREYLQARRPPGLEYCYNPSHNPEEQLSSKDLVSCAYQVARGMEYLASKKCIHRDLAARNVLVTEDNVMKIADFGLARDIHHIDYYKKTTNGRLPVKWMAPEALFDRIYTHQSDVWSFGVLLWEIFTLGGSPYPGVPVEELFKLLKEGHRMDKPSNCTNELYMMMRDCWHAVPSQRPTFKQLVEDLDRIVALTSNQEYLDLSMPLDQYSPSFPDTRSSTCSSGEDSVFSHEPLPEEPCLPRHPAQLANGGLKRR", "method_in_brief": "as §1"}, "ABL1 G250E": {"molecular_target": "T9, ABL1 G250E (Homo sapiens, UniProt P00519, G250E)", "T9 construct": "purchased Thermo Fisher Scientific", "method_in_brief": "as §1"}, "PLK3": {"molecular_target": "T10, PLK3 (Homo sapiens, UniProt Q9H4B4)", "T10 construct": "purchased Thermo Fisher Scientific", "T10 sequence (Q9H4B4 whole entry)": "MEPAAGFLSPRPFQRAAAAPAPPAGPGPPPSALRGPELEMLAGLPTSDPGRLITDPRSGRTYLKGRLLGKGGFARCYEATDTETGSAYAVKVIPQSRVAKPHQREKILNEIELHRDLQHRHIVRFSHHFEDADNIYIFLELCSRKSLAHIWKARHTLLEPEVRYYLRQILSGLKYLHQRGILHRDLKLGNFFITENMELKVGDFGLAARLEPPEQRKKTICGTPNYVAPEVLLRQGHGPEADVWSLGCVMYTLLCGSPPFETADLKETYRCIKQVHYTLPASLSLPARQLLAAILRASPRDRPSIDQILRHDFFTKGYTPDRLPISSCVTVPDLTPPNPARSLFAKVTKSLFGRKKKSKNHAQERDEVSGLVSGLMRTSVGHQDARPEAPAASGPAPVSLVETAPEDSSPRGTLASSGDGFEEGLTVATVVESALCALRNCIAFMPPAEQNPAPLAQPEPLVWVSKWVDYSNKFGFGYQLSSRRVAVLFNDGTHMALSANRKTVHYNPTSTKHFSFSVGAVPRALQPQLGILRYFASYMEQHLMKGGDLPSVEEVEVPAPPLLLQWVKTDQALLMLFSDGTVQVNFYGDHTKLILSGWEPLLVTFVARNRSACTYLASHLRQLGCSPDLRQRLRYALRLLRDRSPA", "method_in_brief": "as §1"}}}
{"compound": "COc1ccc2c(c1OC)c(=O)n1c3ccc(O)cc3c3ccnc2c31", "note": "[MW01, 5-Hydroxy-10,11-dimethoxy-9H-benzo[c]indolo[3,2,1-ij][1,5]naphthyridin-9-one]", "values": [{"measurement": "inhibition at 1 µM", "setting": "LRRK2 FL", "result": 85, "unit": "%"}, {"measurement": "inhibition at 10 µM", "setting": "LRRK2 FL", "result": 90, "unit": "%"}, {"measurement": "inhibition at 1 µM", "setting": "JAK3", "result": 9, "unit": "%"}, {"measurement": "inhibition at 10 µM", "setting": "JAK3", "result": 20, "unit": "%"}, {"measurement": "inhibition at 1 µM", "setting": "FGFR3", "result": 4, "unit": "%"}, {"measurement": "inhibition at 10 µM", "setting": "FGFR3", "result": 8, "unit": "%"}, {"measurement": "inhibition at 1 µM", "setting": "PRKACA (PKA)", "result": 6, "unit": "%"}, {"measurement": "inhibition at 10 µM", "setting": "PRKACA (PKA)", "result": 17, "unit": "%"}, {"measurement": "inhibition at 1 µM", "setting": "KIT V559D", "result": 11, "unit": "%"}, {"measurement": "inhibition at 10 µM", "setting": "KIT V559D", "result": 25, "unit": "%"}, {"measurement": "inhibition at 1 µM", "setting": "CDK5/p35", "result": 17, "unit": "%"}, {"measurement": "inhibition at 10 µM", "setting": "CDK5/p35", "result": 14, "unit": "%"}, {"measurement": "inhibition at 1 µM", "setting": "CDK7/cyclin H/MNAT1", "result": 3, "unit": "%"}, {"measurement": "inhibition at 10 µM", "setting": "CDK7/cyclin H/MNAT1", "result": 4, "unit": "%"}, {"measurement": "inhibition at 1 µM", "setting": "FGFR1", "result": 6, "unit": "%"}, {"measurement": "inhibition at 10 µM", "setting": "FGFR1", "result": 5, "unit": "%"}, {"measurement": "inhibition at 1 µM", "setting": "ABL1 G250E", "result": 9, "unit": "%"}, {"measurement": "inhibition at 10 µM", "setting": "ABL1 G250E", "result": 32, "unit": "%"}, {"measurement": "inhibition at 1 µM", "setting": "PLK3", "result": 6, "unit": "%"}, {"measurement": "inhibition at 10 µM", "setting": "PLK3", "result": 23, "unit": "%"}]}
{"compound": "COc1ccc2cc3c(N)nn(C(=O)c4cccc(N(C)C)c4)c3nc2c1", "note": "[MW05, (3-Amino-7-methoxypyrazolo[3,4-b]quinolin-1-yl)-[3-(dimethylamino)phenyl]methanone]", "values": [{"measurement": "inhibition at 1 µM", "setting": "LRRK2 FL", "result": -6, "unit": "%"}, {"measurement": "inhibition at 10 µM", "setting": "LRRK2 FL", "result": 6, "unit": "%"}, {"measurement": "inhibition at 1 µM", "setting": "JAK3", "result": 4, "unit": "%"}, {"measurement": "inhibition at 10 µM", "setting": "JAK3", "result": -6, "unit": "%"}, {"measurement": "inhibition at 1 µM", "setting": "FGFR3", "result": 1, "unit": "%"}, {"measurement": "inhibition at 10 µM", "setting": "FGFR3", "result": -8, "unit": "%"}, {"measurement": "inhibition at 1 µM", "setting": "PRKACA (PKA)", "result": 12, "unit": "%"}, {"measurement": "inhibition at 10 µM", "setting": "PRKACA (PKA)", "result": -15, "unit": "%"}, {"measurement": "inhibition at 1 µM", "setting": "KIT V559D", "result": 13, "unit": "%"}, {"measurement": "inhibition at 10 µM", "setting": "KIT V559D", "result": 15, "unit": "%"}, {"measurement": "inhibition at 1 µM", "setting": "CDK5/p35", "result": 5, "unit": "%"}, {"measurement": "inhibition at 10 µM", "setting": "CDK5/p35", "result": 7, "unit": "%"}, {"measurement": "inhibition at 1 µM", "setting": "CDK7/cyclin H/MNAT1", "result": 2, "unit": "%"}, {"measurement": "inhibition at 10 µM", "setting": "CDK7/cyclin H/MNAT1", "result": 29, "unit": "%"}, {"measurement": "inhibition at 1 µM", "setting": "FGFR1", "result": -1, "unit": "%"}, {"measurement": "inhibition at 10 µM", "setting": "FGFR1", "result": -7, "unit": "%"}, {"measurement": "inhibition at 1 µM", "setting": "ABL1 G250E", "result": 12, "unit": "%"}, {"measurement": "inhibition at 10 µM", "setting": "ABL1 G250E", "result": 0, "unit": "%"}, {"measurement": "inhibition at 1 µM", "setting": "PLK3", "result": 5, "unit": "%"}, {"measurement": "inhibition at 10 µM", "setting": "PLK3", "result": 12, "unit": "%"}]}
